According to DBAASP:
Values after ≈ are worked out from the molar mass of the structure shown.

Legend:
Test in all cases: ≥ marks a high value that may be exact or a test limit, other limits are often not marked, values filed in µg/mL are converted to µM
[1] = tested on: Aspergillus awamori KCTC 6915
[2] = tested on: Aspergillus flavus KCTC 6905
[3] = tested on: Aspergillus fumigatus KCTC 6145
[4] = tested on: Aspergillus parasiticus KCTC 6598
[5] = tested on: Bacillus subtilis KCTC 1918
[6] = tested on: Bacillus subtilis KCTC 1998
[7] = tested on: Candida albicans KCTC 7270
[8] = tested on: Escherichia coli CCARM 1229
[9] = tested on: Escherichia coli CCARM 1238
[10] = tested on: Listeria monocytogenes ATCC 19115
[11] = tested on: Listeria monocytogenes KCTC 3710
[12] = tested on: Proteus vulgaris KCTC 2433
[13] = tested on: Pseudomonas aeruginosa 3547
[14] = tested on: Pseudomonas aeruginosa 4007
[15] = tested on: Pseudomonas aeruginosa ATCC 15692
[16] = tested on: Pseudomonas aeruginosa KCTC 1637
[17] = tested on: Salmonella typhimurium CCARM 8009
[18] = tested on: Salmonella typhimurium CCARM 8013
[19] = tested on: Salmonella typhimurium KCTC 1926
[20] = tested on: Staphylococcus aureus CCARM 3089
[21] = tested on: Staphylococcus aureus CCARM 3114
[22] = tested on: Staphylococcus aureus PBEL
[23] = tested on: Staphylococcus epidermidis ATCC 12228
[24] = tested on: Staphylococcus epidermidis KCTC 3096
[25] = tested on: Trichosporon beigelii KCTC 7707
[26] = tested on: Candida albicans ATCC 37092
[27] = tested on: Escherichia coli ATCC 25922
[28] = tested on: Staphylococcus aureus ATCC 29213
[29] = tested on: Candida glabrata 090902
[30] = tested on: Enterobacter cloacae CGMCC 1.57
[31] = tested on: Enterococcus faecalis 981
[32] = tested on: Enterococcus faecium 091299
[33] = tested on: Nocardia asteroides
[34] = tested on: Psychrobacter faecalis X29
[35] = tested on: Staphylococcus aureus ATCC 25923
[36] = tested on: Staphylococcus aureus A170
[37] = tested on: Staphylococcus epidermidis
[38] = tested on: Aerococcus viridans
[39] = tested on: Bacillus megaterium
[40] = tested on: Botrytis cinerea
[41] = tested on: Enterobacter cloacae
[42] = tested on: Escherichia coli 363
[43] = tested on: Fusarium oxysporum
[44] = tested on: Klebsiella pneumoniae
[45] = tested on: Micrococcus luteus
[46] = tested on: Pectobacterium carotovorum
[47] = tested on: Penicillium crustosum
[48] = tested on: Salmonella typhimurium
[49] = tested on: Staphylococcus aureus
[50] = tested on: Vibrio alginolyticus
[51] = tested on: Vibrio anguillarum
[52] = tested on: Vibrio harveyi
[53] = tested on: Vibrio penaeicida

For CC[C@H](C)[C@H](NC(=O)[C@H](CCCCN)NC(=O)[C@H](CCCCN)NC(=O)[C@H](C)NC(=O)[C@H](CC(C)C)NC(=O)[C@H](CCCCN)NC(=O)[C@H](CCCCN)NC(=O)[C@H](CC(C)C)NC(=O)[C@H](CCCN=C(N)N)NC(=O)[C@H](CCCCN)NC(=O)[C@H](C)N)C(=O)N[C@@H](Cc1c[nH]c2ccccc12)C(=O)N[C@@H](CCCCN)C(=O)N[C@@H](Cc1c[nH]c2ccccc12)C(=O)N[C@@H](CCCCN)C(N)=O [AKRLKKLAKKIWKWK], the MIC [1] was 8 µM (≈ 15.4 µg/mL), the MIC [2] was 8 µM (≈ 15.4 µg/mL) and the MIC [3] was 4 µM (≈ 7.7 µg/mL). For the same molecule, the MIC [4] was 8 µM (≈ 15.4 µg/mL), the MIC [5] was 2 µM (≈ 3.85 µg/mL) and the MIC [6] was 2 µM (≈ 3.85 µg/mL). The MIC [7] was 8 µM (≈ 15.4 µg/mL), the MIC [8] was 1.41 µM (≈ 2.72 µg/mL) and the MIC [9] was 2 µM (≈ 3.85 µg/mL). The MIC [10] was 2 µM (≈ 3.85 µg/mL), the MIC [11] was 2 µM (≈ 3.85 µg/mL) and the MIC [12] was 2.83 µM (≈ 5.44 µg/mL). The MIC [13] was 2.83 µM (≈ 5.44 µg/mL), the MIC [14] was 1 µM (≈ 1.92 µg/mL) and the MIC [15] was 2 µM (≈ 3.85 µg/mL). It also gave an MIC [16] of 2 µM (≈ 3.85 µg/mL), an MIC [17] of 2 µM (≈ 3.85 µg/mL) and an MIC [18] of 1 µM (≈ 1.92 µg/mL). The MIC [19] was 1.41 µM (≈ 2.72 µg/mL), the MIC [20] was 2 µM (≈ 3.85 µg/mL) and the MIC [21] was 4 µM (≈ 7.7 µg/mL). The MIC [22] was 1 µM (≈ 1.92 µg/mL), the MIC [23] was 2.83 µM (≈ 5.44 µg/mL) and the MIC [24] was 2.83 µM (≈ 5.44 µg/mL). It also gave an MIC [25] of 16 µM (≈ 30.8 µg/mL).
Molecule CC(C)C[C@H](NC(=O)[C@@H]1CCCN1C(=O)[C@H](CCCN=C(N)N)NC(=O)[C@@H]1CCCN1C(=O)[C@H](CCCN=C(N)N)NC(=O)[C@@H]1CCCN1)C(=O)N1CCC[C@H]1C(=O)N[C@@H](Cc1ccccc1)C(=O)N1CCC[C@H]1C(=O)N[C@@H](CCCN=C(N)N)C(=O)N1CCC[C@H]1C(=O)NCC(=O)O [PRPRPLPFPRPG] has an MIC [26] of at least 500 µM, an MIC [27] of over 500 µM and an MIC [28] of over 500 µM.
CC[C@H](C)[C@H](NC(=O)[C@H](C)NC(=O)[C@@H](NC(=O)[C@@H]1CCCN1C(=O)[C@H](CC(C)C)NC(=O)[C@@H](NC(=O)[C@H](Cc1cnc[nH]1)NC(=O)[C@H](C)NC(=O)[C@H](C)NC(=O)[C@@H](NC(=O)[C@H](CCCCN)NC(=O)[C@H](CC(C)C)NC(=O)[C@@H](NC(=O)[C@H](C)NC(=O)[C@@H]1CCCN1C(=O)[C@H](CC(C)C)NC(=O)[C@@H](N)Cc1ccccc1)C(C)C)C(C)C)[C@@H](C)CC)[C@@H](C)O)C(=O)N[C@H]1CSSC[C@@H](C(=O)O)NC(=O)[C@H](CCCN=C(N)N)NC(=O)[C@H](CCCN=C(N)N)NC(=O)[C@H](CO)NC(=O)[C@H]([C@@H](C)CC)NC(=O)[C@H](C)NC1=O [FLPAVLKVAAHILPTAICAISRRC] gave an MIC [29] of 12.5 µM (≈ 32 µg/mL), an MIC [30] of at least 100 µM and an MIC [31] of 3.1 µM (≈ 7.94 µg/mL). It also gave an MIC [32] of at least 50 µM, an MIC [33] of 3.1 µM (≈ 7.94 µg/mL) and an MIC [34] of 25 µM (≈ 64.1 µg/mL). It also gave an MIC [35] of 3.1 µM (≈ 7.94 µg/mL).
CC[C@H](C)[C@H](NC(=O)[C@@H](NC(=O)[C@@H](NC(=O)[C@@H]1CCCN1C(=O)[C@H](CC(C)C)NC(=O)[C@@H](N)CC(C)C)[C@@H](C)CC)C(C)C)C(=O)N[C@@H](CC(N)=O)C(=O)N[C@@H](CC(C)C)C(=O)N[C@@H](CC(C)C)C(=O)N[C@@H](CCCCN)C(=O)N[C@@H](CO)C(=O)N[C@@H](CC(C)C)C(=O)N[C@@H](CC(C)C)C(=O)O [LLPIVINLLKSLL] was tested, and the MIC [36] was 6.9 µM (≈ 10 µg/mL) and the MIC [37] was 13.8 µM (≈ 20 µg/mL).
Work on CSCC[C@H](NC(=O)[C@H](CCCN=C(N)N)NC(=O)CNC(=O)[C@H](CCCCN)NC(=O)[C@H](Cc1ccc(O)cc1)NC(=O)[C@H](Cc1ccc(O)cc1)NC(=O)[C@@H](NC(=O)[C@H](CCC(N)=O)NC(=O)[C@H](Cc1ccccc1)NC(=O)[C@H](CCCN=C(N)N)NC(=O)[C@H](CCCCN)NC(=O)[C@H](CC(C)C)NC(=O)[C@H](Cc1ccc(O)cc1)NC(=O)[C@@H]1CCCN1C(=O)[C@@H](N)CCCCN)C(C)C)C(=O)N[C@@H](Cc1c[nH]c2ccccc12)C(=O)N[C@@H](CS)C(=O)O [KPYLKRFQVYYKGRMWC] yielded an MIC [38] of 6.25 µM (≈ 14.2 µg/mL), an MIC [39] of 3.12 µM (≈ 7.07 µg/mL) and an MIC [40] of 12.5 µM (≈ 28.3 µg/mL). It also gave an MIC [41] of 25 µM (≈ 56.7 µg/mL), an MIC [42] of 25 µM (≈ 56.7 µg/mL) and an MIC [43] of 12.5 µM (≈ 28.3 µg/mL). For the same molecule, the MIC [44] was 25 µM (≈ 56.7 µg/mL), the MIC [45] was 6.25 µM (≈ 14.2 µg/mL) and the MIC [46] was at least 50 µM. For the same molecule, the MIC [47] was 25 µM (≈ 56.7 µg/mL), the MIC [48] was 25 µM (≈ 56.7 µg/mL) and the MIC [49] was 50 µM (≈ 113 µg/mL). It also gave an MIC [50] of 25 µM (≈ 56.7 µg/mL), an MIC [51] of at least 100 µM and an MIC [52] of at least 50 µM. It also gave an MIC [53] of at least 100 µM.
